Reference: the supplement of paper PMC10307832

Key:
Linsitinib = compound: C[C@]1(O)C[C@@H](c2nc(-c3ccc4ccc(-c5ccccc5)nc4c3)c3c(N)nccn32)C1 [Linsitinib]; experiment: relative viability (nuclei count vs DMSO), 5 days (fraction); higher = more cells survive
Procedure, shortened: (§1)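 Following overnight incubation at 37 °C, lung cancer cell lines in 1536-well plates were pinned with five library-drug doses (not always all listed) in √10 steps on vehicle-anchored plates. The cells then spent 5 days without medium change before a combined fix, permeabilisation and Hoechst stain, 4× imaging and MetaXpress nuclear counts. Viability is the treated-to-vehicle ratio of nuclei, taken as the median across plates. Only plates with control CV below 25% and at least one doubling passed.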

Ispinesib = compound: Cc1ccc(C(=O)N(CCCN)[C@@H](c2nc3cc(Cl)ccc3c(=O)n2Cc2ccccc2)C(C)C)cc1 [Ispinesib]; experiment: as above
Procedure, shortened: as §1

| Cell Line | relative viability (Linsitinib; 0.01 µM) | relative viability (Linsitinib; 0.03162 µM) | relative viability (Linsitinib; 0.1 µM) | relative viability (Linsitinib; 0.3162 µM) | relative viability (Linsitinib; 1 µM) | relative viability (Linsitinib; 1 µM, anchor plate) | relative viability (Ispinesib; 0.001 µM) | relative viability (Ispinesib; 0.003162 µM) | relative viability (Ispinesib; 0.01 µM) | relative viability (Ispinesib; 0.03162 µM) | relative viability (Ispinesib; 0.1 µM) |
| --- | --- | --- | --- | --- | --- | --- | --- | --- | --- | --- | --- |
| NCI-H460 | 0.966 | 0.927 | 0.977 | 0.872 | 0.949 | 0.789 | 1.03 | 1.03 | 1.14 | 0.935 | 0.0826 |
| NCI-H1651 | 0.969 | 1 | 0.942 | 0.826 | 0.939 | 1.01 | 1.06 | 1.05 | 1.06 | 0.927 | 0.549 |
| NCI-H1975 | 0.939 | 0.927 | 0.869 | 0.835 | 0.775 | 0.984 | 1 | 0.952 | 1 | 0.742 | 0.184 |
| NCI-H2126 | 1.01 | 0.971 | 1 | 0.818 | 0.71 | 0.715 | 0.978 | 1.08 | 1.06 | 0.992 | 0.564 |
| 201T | 0.988 | 0.989 | 1.01 | 0.967 | 0.911 | 1.03 | 0.978 | 1.05 | 1.03 | 0.786 | 0.367 |
| HCC-78 | 0.794 | 1.03 | 0.816 | 0.868 | 0.699 | 0.538 | 0.943 | 1.04 | 1.08 | 0.533 | 0.791 |
| NCI-H358 | 0.86 | 0.978 | 0.9 | 0.809 | 0.522 | 0.749 | 1.15 | 1 | 1 | 0.528 | 0.313 |
| SK-LU-1 | 1.01 | 0.859 | 1.03 | 0.6 | 0.967 | 0.999 | 1.15 | 1.15 | 1.16 | 0.881 | 0.592 |
| H3255 | 0.872 | 0.933 | 0.927 | 0.74 | 0.896 | 0.972 | 0.999 | 1.15 | 1.02 | 0.701 | 0.335 |
| LOU-NH91 | 0.873 | 0.943 | 0.991 | 1 | 0.801 | 0.942 | 0.962 | 1.09 | 1.05 | 0.646 | 0.287 |
| NCI-H1666 | 0.975 | 0.983 | 1.04 | 0.755 | 0.747 | 0.878 | 0.997 | 1.05 | 0.953 | 0.79 | 0.508 |
| SK-MES-1 | 0.962 | 1.01 | 1.01 | 0.811 | 0.874 | 1.05 | 1.06 | 1.11 | 1.06 | 0.56 | 0.252 |
| NCI-H2023 | 0.912 | 0.668 | 0.949 | 0.649 | 0.618 | 0.687 | 1.08 | 0.961 | 1.06 | 0.387 | 0.177 |
| COR-L 105 | 0.884 | 0.864 | 0.875 | 0.709 | 0.761 | 0.96 | 1.1 | 0.901 | 0.766 | 0.397 | 0.34 |
| NCI-H1648 | 1.11 | 0.972 | 0.868 | 0.345 | 0.8 |  | 1.02 | 1.13 | 0.792 | 1.14 | 0.387 |
| NCI-H838 | 0.975 | 0.905 | 0.906 | 0.493 | 0.667 | 1.06 | 1.05 | 1.03 | 1.08 | 0.747 | 0.343 |
| SW 1573 | 1.04 | 1.01 | 0.98 | 0.796 | 0.723 | 0.801 | 1.01 | 0.973 | 1.1 | 0.666 | 0.343 |
